According to article PMC12250605, “Recombinant Expression and Characterization of a Novel Type I Baeyer–Villiger Monooxygenase from a Streptomyces Strain Isolated from the Rhizosphere of the Atacama Desert Lupinus oreophilus” (International Journal of Molecular Sciences, 2025):

System: T1, MO-G35A
T1 construct: full-length, C-terminal His6 tag kept, codon-optimised gene; pET-28a (cytoplasmic) or pET-22b (pelB, periplasmic), E. coli NiCo21(DE3) or Shuffle T7; 73 kDa
Test: NADPH consumption at […] nm, sigmoidal fit
Type: biochemical, Streptomyces sp. G35A
Settings: Tris-HCl pH 7.5, 30 °C (methods) or 35 °C (results), allosteric sigmoidal fit

| Structure (SMILES) | Km (5 mM BHC) [µM] | Km (200 µM NADPH) [µM] |
| --- | --- | --- |
| NC(=O)C1=CN([C@@H]2O[C@H](COP(=O)(O)OP(=O)(O)OC[C@H]3O[C@@H](n4cnc5c(N)ncnc54)[C@H](OP(=O)(O)O)[C@@H]3O)[C@@H](O)[C@H]2O)C=CC1 [NADPH] | 23.8 | – |
| O=C1CC2C=CCC12 (centres unmarked) [BHC, bicyclo [3.2.0] hept-2-en-6-one] | – | 60 |
